For 33 molecules, pED50 results are on record in ChEMBL document CHEMBL3044894, “QSAR studies on a number of pyrrolidin-2-one antiarrhythmic arylpiperazinyls” (2012).

Molecules are shown by their SMILES.

For the assay, the system named is Rattus norvegicus. The experiment in a line: Antiarrhythmic activity in anaesthetized rat assessed as inhibition of adrenaline-induced arrhythmia. The class given is functional, Heart.
For `CCOc1ccccc1N1CCN(CC(O)CN2CCCC2=O)CC1` (stereo not drawn), the pED50 worked out at 1.97.
With `COc1ccc(Cl)cc1N1CCN(CC(O)CN2CCCC2=O)CC1` (stereo not drawn), the pED50 stood at 1.48.
As for `O=C1CCCN1CCCN1CCN(c2ccccc2Cl)CC1`, the figure is 1.8; as for `O=C1CCCN1CC(O)CN1CCN(c2ccccc2)CC1` (stereo not drawn), 1.6; as for `Cc1ccccc1N1CCN(CC(O)CN2CCCC2=O)CC1` (stereo not drawn), 1.55.
Next, `O=C1CCCN1CC(O)CN1CCN(c2ccccc2F)CC1` (stereo not drawn): 1.79; `O=C1N(CC(O)CN2CCN(c3ccccc3)CC2)CCC1(c1ccccc1)c1ccccc1` (stereo not drawn): 2.38; `O=C1N(CC(O)CN2CCN(c3ccccc3C(F)(F)F)CC2)CCC1(c1ccccc1)c1ccccc1` (stereo not drawn): 2.13.
As for `CC(C)NC(=O)OC(CN1CCN(c2ccccc2Cl)CC1)CN1CCCC1=O` (stereo not drawn), the figure is 2; as for `COc1ccccc1N1CCN(CC(O)CN2CCC(c3ccccc3)(c3ccccc3)C2=O)CC1` (stereo not drawn), 2.37.
On to `COc1cccc(N2CCN(CC(O)CN3CCCC3=O)CC2)c1` (stereo not drawn), for which the pED50 worked out at 1.64.
Next, `COc1ccccc1N1CCN(CC(O)CN2CCCC2=O)CC1` (stereo not drawn): 1.43.
As for `Cc1ccccc1N1CCN(CC(O)CN2CCC(c3ccccc3)(c3ccccc3)C2=O)CC1` (stereo not drawn), the figure is 2.53; as for `CC(C)C(=O)OC(CN1CCN(c2ccccc2)CC1)CN1CCCC1=O` (stereo not drawn), 1.88.
Next, `O=C(NCc1ccccc1)OC(CN1CCN(c2ccccc2)CC1)CN1CCCC1=O` (stereo not drawn): 1.47; `O=C1CCCN1CC(O)CN1CCN(c2ccccc2C(F)(F)F)CC1` (stereo not drawn): 1.31.
For `CCOc1ccccc1N1CCN(CC(O)CN2CCC(c3ccccc3)(c3ccccc3)C2=O)CC1` (stereo not drawn), the pED50 is 2.66.
In the case of `CCOc1ccccc1N1CCN(CCCN2CCCC2=O)CC1`, the pED50 is reported as 2.52.
Next, `O=C1CCCN1CCCN1CCN(c2cccc(C(F)(F)F)c2)CC1`: 1.45; `O=C1CCCN1CCCN1CCN(c2ccccc2O)CC1`: 1.36; `CC(C)Oc1ccccc1N1CCN(CC(O)CN2CCCC2=O)CC1` (stereo not drawn): 1.77.
As for `CCCC(=O)OC(CN1CCN(c2ccccc2OC(C)C)CC1)CN1CCCC1=O` (stereo not drawn), the figure is 1.77; as for `CCNC(=O)OC(CN1CCN(c2ccccc2OC)CC1)CN1CCCC1=O` (stereo not drawn), 1.92; as for `CCCNC(=O)OC(CN1CCN(c2ccccc2OC)CC1)CN1CCCC1=O` (stereo not drawn), 1.52.
As to `O=C1CCCN1CC(O)CN1CCN(c2ccc(F)cc2F)CC1` (stereo not drawn), the pED50 was 1.54.
Next, `O=C1CCCN1CC(O)CN1CCN(c2ccccc2O)CC1` (stereo not drawn): 2.23; `COc1ccccc1N1CCN(CCCN2CCCC2=O)CC1`: 1.79.
As for `O=C1CCCN1CCCN1CCN(c2ccccc2)CC1`, the pED50 was determined as 2.01.
As for `CCNC(=O)OC(CN1CCN(c2ccccc2)CC1)CN1CCCC1=O` (stereo not drawn), the figure is 1.66; as for `CCCNC(=O)OC(CN1CCN(c2ccccc2)CC1)CN1CCCC1=O` (stereo not drawn), 1.52.
Next, `COc1ccccc1N1CCN(CC(CN2CCCC2=O)OC(=O)NC(C)C)CC1` (stereo not drawn): 2.19; `O=C1CCCN1CC(O)CN1CCN(c2ccc(Cl)cc2)CC1` (stereo not drawn): 1.4; `O=C1CCCN1CCCN1CCN(c2ccccc2F)CC1`: 1.54.
